Reference: PubChem BioAssay AID248 (DTP/NCI, 2004)
Inconclusive results and toxic doses are left out. Cut-off read from the data, not from the text of the source: active = T/C of 150% or more; inactive = T/C below 125%.

Tested on: L1210 leukemia ip in BDF1 mice, survival T/C
Experiment: NCI In Vivo Anticancer Drug Screen. Data for tumor model L1210 Leukemia (intraperitoneal) in B6D2F1 (BDF1) mice
Conditions: endpoint: mean survival time, higher = longer survival
Outline: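 Tumor cells were implanted, animals were treated, and survival was followed. The result divides the treated measurement by the vehicle-control measurement.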

[1] = dose: 100.0 mg/kg/injection, schedule: Q01DX001 (ip), vehicle: Klucel (hydroxypropylcellulose) (HPC)
[2] = dose: 100.0 mg/kg/injection, schedule: Q04DX003 (ip), vehicle: Klucel (hydroxypropylcellulose) (HPC)
[3] = dose: 100.0 mg/kg/injection, schedule: Q04DX003 (ip), vehicle: saline with Tween-80
[4] = dose: 150.0 mg/kg/injection, schedule: Q01DX009 (ip), vehicle: other
[5] = dose: 200.0 mg/kg/injection, schedule: Q04DX003 (ip), vehicle: saline with Tween-80
[6] = dose: 400.0 mg/kg/injection, schedule: Q04DX003 (ip), vehicle: saline with Tween-80
[7] = dose: 100.0 mg/kg/injection, schedule: Q01DX001 (ip), vehicle: carboxymethylcellulose (CMC)
[8] = dose: 200.0 mg/kg/injection, schedule: Q01DX001 (ip), vehicle: carboxymethylcellulose (CMC)
[9] = dose: 400.0 mg/kg/injection, schedule: Q01DX001 (ip), vehicle: carboxymethylcellulose (CMC)
[10] = dose: 75.0 mg/kg/injection, schedule: Q01DX001 (ip), vehicle: acid diluted with saline
[11] = dose: 200.0 mg/kg/injection, schedule: Q04DX003 (ip), vehicle: Klucel (hydroxypropylcellulose) (HPC)
[12] = dose: 400.0 mg/kg/injection, schedule: Q04DX003 (ip), vehicle: Klucel (hydroxypropylcellulose) (HPC)

Measured: T/C

O=C(Nc1ccc2cc(S(=O)(=O)O)ccc2c1)c1ccc(N=Nc2c(S(=O)(=O)O)cc3cc(S(=O)(=O)O)cc(NC(=O)c4ccccc4)c3c2O)cc1
inactive: dose: 25.0 mg/kg/injection, schedule: Q01DX001 (ip), vehicle: Klucel (hydroxypropylcellulose) (HPC) 93 % of control | dose: 25.0 mg/kg/injection, schedule: Q01DX009 (ip), vehicle: other 108 % of control | dose: 25.0 mg/kg/injection, schedule: Q04DX003 (ip), vehicle: Klucel (hydroxypropylcellulose) (HPC) 95 % of control | dose: 50.0 mg/kg/injection, schedule: Q01DX001 (ip), vehicle: Klucel (hydroxypropylcellulose) (HPC) 88 % of control | dose: 50.0 mg/kg/injection, schedule: Q01DX009 (ip), vehicle: other 102 % of control | dose: 50.0 mg/kg/injection, schedule: Q04DX003 (ip), vehicle: Klucel (hydroxypropylcellulose) (HPC) 98 % of control | [1] 92 % of control | dose: 100.0 mg/kg/injection, schedule: Q01DX009 (ip), vehicle: other 97 % of control | [2] 101 % of control | [3] 104 % of control | [4] 89 % of control | [5] 91 % of control

CN(C)c1ccc(-c2nc3nc[nH]c(=O)c3[nH]2)cc1
inactive: dose: 5.0 mg/kg/injection, schedule: Q01DX001 (ip), vehicle: saline 100 % of control | dose: 10.0 mg/kg/injection, schedule: Q01DX001 (ip), vehicle: saline 96 % of control | dose: 20.0 mg/kg/injection, schedule: Q01DX001 (ip), vehicle: saline 96 % of control | dose: 40.0 mg/kg/injection, schedule: Q01DX001 (ip), vehicle: saline 96 % of control | dose: 80.0 mg/kg/injection, schedule: Q01DX001 (ip), vehicle: saline 96 % of control

CCOC(=O)c1ccc(NC(=O)CC(C)=O)cc1
inactive: [3] 103 % of control | [5] 101 % of control | [6] 97 % of control

O=C1C=CC(=O)N1Cc1ccc[n+](CCC[n+]2cccc(CN3C(=O)C=CC3=O)c2)c1
inactive: [7] 98 % of control | [8] 91 % of control | [9] 96 % of control

C=Cc1c2[n-]c(c1C)/C=c1\[n-]/c(c(C)c1C=C)=C\c1[n-]c(c(CCC(=O)O)c1C)/C=c1\[n-]/c(c(C)c1CCC(=O)O)=C\2.[Co]
inactive: dose: 100.0 mg/kg/injection, schedule: Q01DX009 (ip), vehicle: dextrose 88 % of control | dose: 100.0 mg/kg/injection, schedule: Q04DX003 (ip), vehicle: dextrose 94 % of control | dose: 200.0 mg/kg/injection, schedule: Q01DX009 (ip), vehicle: dextrose 94 % of control | dose: 200.0 mg/kg/injection, schedule: Q04DX003 (ip), vehicle: dextrose 104 % of control | dose: 400.0 mg/kg/injection, schedule: Q04DX003 (ip), vehicle: dextrose 94 % of control | dose: 1:1.0 dilution, schedule: Q04DX002 (ip), vehicle: saline 104 % of control | dose: 1:2.0 dilution, schedule: Q04DX002 (ip), vehicle: saline 104 % of control | dose: 1:4.0 dilution, schedule: Q04DX002 (ip), vehicle: saline 86 % of control

O=P1(Cc2ccccc2)CC(Br)C(Br)C1 (stereo unspecified)
inactive: dose: 100.0 mg/kg/injection, schedule: Q04DX003 (ip), vehicle: other 101 % of control | dose: 200.0 mg/kg/injection, schedule: Q04DX003 (ip), vehicle: other 101 % of control | dose: 400.0 mg/kg/injection, schedule: Q04DX003 (ip), vehicle: other 101 % of control

C=CC1CN2CCC1CC2C(O)c1ccnc2ccccc12 (stereo unspecified) (tested in a mixture with another compound)
inactive: dose: 25.0 mg/kg/injection, schedule: Q01DX009 (ip), vehicle: saline with Tween-80 101 % of control | dose: 50.0 mg/kg/injection, schedule: Q01DX009 (ip), vehicle: saline with Tween-80 98 % of control | [7] 91 % of control | dose: 100.0 mg/kg/injection, schedule: Q01DX009 (ip), vehicle: saline with Tween-80 93 % of control | [8] 98 % of control | [9] 93 % of control

CC(O)(C(=O)O)c1ccccc1 (stereo unspecified)
inactive: dose: 75.0 mg/kg/injection, schedule: Q01DX009 (ip), vehicle: other 99 % of control | dose: 100.0 mg/kg/injection, schedule: Q04DX003 (ip), vehicle: saline 100 % of control | [4] 94 % of control | dose: 200.0 mg/kg/injection, schedule: Q04DX003 (ip), vehicle: saline 105 % of control | dose: 300.0 mg/kg/injection, schedule: Q01DX009 (ip), vehicle: other 100 % of control | dose: 400.0 mg/kg/injection, schedule: Q04DX003 (ip), vehicle: saline 91 % of control

FC(F)(F)c1cccc(N2CCNCC2)c1
inactive: [10] 90 % of control

CC(=O)Nc1nc(C)c(CCCNS(=O)(=O)c2ccc([N+](=O)[O-])cc2)c(=O)[nH]1
inactive: dose: 100.0 mg/kg/injection, schedule: Q01DX009 (ip), vehicle: gum acacia 90 % of control | dose: 200.0 mg/kg/injection, schedule: Q01DX009 (ip), vehicle: gum acacia 88 % of control | dose: 400.0 mg/kg/injection, schedule: Q01DX009 (ip), vehicle: gum acacia 87 % of control

c1cc2c(c(NC3=NCCCS3)c1)CCCC2
inactive: dose: 100.0 mg/kg/injection, schedule: Q01DX009 (ip), vehicle: Klucel (hydroxypropylcellulose) (HPC) 102 % of control | [2] 97 % of control | dose: 200.0 mg/kg/injection, schedule: Q01DX009 (ip), vehicle: Klucel (hydroxypropylcellulose) (HPC) 96 % of control | [11] 95 % of control | [12] 90 % of control

CCCC1(CCC)c2ccccc2C(=O)c2ccccc21
inactive: [1] 105 % of control | [2] 100 % of control | dose: 200.0 mg/kg/injection, schedule: Q01DX001 (ip), vehicle: Klucel (hydroxypropylcellulose) (HPC) 96 % of control | [11] 96 % of control | dose: 400.0 mg/kg/injection, schedule: Q01DX001 (ip), vehicle: Klucel (hydroxypropylcellulose) (HPC) 105 % of control | [12] 95 % of control

N#CCC(N)C(=O)O (stereo unspecified)
inactive: dose: 50.0 mg/kg/injection, schedule: Q01DX001 (ip), vehicle: saline 90 % of control | dose: 100.0 mg/kg/injection, schedule: Q01DX001 (ip), vehicle: saline 96 % of control | dose: 200.0 mg/kg/injection, schedule: Q01DX001 (ip), vehicle: saline 96 % of control

CCc1ccc(-n2cnc3c(=O)[nH]c(N)nc32)cc1
inactive: dose: 25.0 mg/kg/injection, schedule: Q01DX001 (ip), vehicle: saline with Tween-80 86 % of control | dose: 50.0 mg/kg/injection, schedule: Q01DX001 (ip), vehicle: saline with Tween-80 88 % of control | dose: 100.0 mg/kg/injection, schedule: Q01DX001 (ip), vehicle: saline with Tween-80 91 % of control

COc1ccc(OC)c(-c2csc(=O)s2)c1
inactive: dose: 50.0 mg/kg/injection, schedule: Q04DX002 (ip), vehicle: Klucel (hydroxypropylcellulose) (HPC) 97 % of control | dose: 100.0 mg/kg/injection, schedule: Q04DX002 (ip), vehicle: Klucel (hydroxypropylcellulose) (HPC) 111 % of control

Nc1cccc2c1C(O)c1ccccc1-2 (stereo unspecified)
inactive: [3] 101 % of control | [5] 97 % of control | [6] 101 % of control

C/C(=C\C(=O)O)C(=O)O (tested in a mixture with another compound)
inactive: dose: 264.0 mg/kg/injection, schedule: Q01DX001 (ip), vehicle: carboxymethylcellulose (CMC) 113 % of control | [9] 112 % of control | dose: 600.0 mg/kg/injection, schedule: Q01DX001 (ip), vehicle: carboxymethylcellulose (CMC) 112 % of control

CCCC(CCC)NCC(C)O (stereo unspecified)
inactive: [10] 104 % of control
